As a reminder, the IC50 is the concentration needed to halve the response being measured.

For the assay, the target named is IDH1-R132H recombinant protein (Homo sapiens, UniProt O75874, R132H). The assay is described as follows: IDH1-R132H enzymatic assay (NADPH consumption, diaphorase/resazurin readout). Type of assay: biochemical. The method, then: Assays were performed in a 384-well black plate. An aliquot of 250 nL of compound was incubated with 10 μL of 30 nM IDH1-R132H or 10 nM IDH1-R132C recombinant protein in assay buffer (50 mM Tris pH=7.5, 150 mM NaCl, 5 mM MgCl2, 0.1% (w/v) Bovine Serum Albumin, and 0.01% Triton X-100) in each well at 25° C. for 15 minutes. After the plate was centrifuged briefly, an aliquot of 10 μL of 2 mM α-ketoglutarate and 20 μM NADPH solution prepared in assay buffer was then added to each well and the reaction was maintained at 25° C. for 45 minutes. An aliquot of 10 μL of diaphorase solution (0.15 U/mL diaphorase and 30 μM Resazurin in assay buffer) was added to each well. […] The IC50 of a given compound was calculated by fitting the dose response curve of inhibition of NADPH consumption at a given concentration with the four parameter logistic equation.
Chain of IDH1-R132H recombinant protein (O75874 whole entry R132H): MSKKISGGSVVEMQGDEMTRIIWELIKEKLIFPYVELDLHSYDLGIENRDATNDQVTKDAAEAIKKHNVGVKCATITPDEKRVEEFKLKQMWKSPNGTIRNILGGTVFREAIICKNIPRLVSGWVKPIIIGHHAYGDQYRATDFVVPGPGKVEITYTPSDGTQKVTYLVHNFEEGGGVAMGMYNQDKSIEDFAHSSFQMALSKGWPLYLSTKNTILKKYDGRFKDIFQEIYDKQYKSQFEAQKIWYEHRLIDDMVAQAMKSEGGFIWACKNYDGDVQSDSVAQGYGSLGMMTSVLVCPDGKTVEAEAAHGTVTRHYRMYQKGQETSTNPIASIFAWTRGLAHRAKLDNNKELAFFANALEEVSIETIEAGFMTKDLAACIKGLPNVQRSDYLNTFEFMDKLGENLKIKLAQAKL
A general note: Resazurin is reduced to fluorescent resorufin, in cell work by metabolically active cells.

Setting [1] is: read-out: Enzyme IDH1 R132H IC50 Range.

The structures appear in SMILES notation. Where two headings read alike, the source gives them in different places. Some results are limits rather than exact numbers.

For `COc1cc(N[C@H](C)c2cc3cc(Cl)ccc3[nH]c2=O)ccc1C#N` [Compound I-3, 4-{[(1R)-1-(6-chloro-2-oxo-1,2-dihydroquinolin-3-yl)ethyl]amino}-2-methoxybenzonitrile], the IC50 under setting [1] was above 1000 nM.
Same read-out and setting: the same measure for `C[C@H](Nc1ccc(C#N)cc1S(C)(=O)=O)c1cc2cc(Cl)ccc2[nH]c1=O` [Compound I-4, 4-{[(1S)-1-(6-chloro-2-oxo-1,2-dihydroquinolin-3-yl)ethyl]amino}-3-methanesulfonylbenzonitrile]: above 1000 nM.
As for `COc1cc(N[C@@H](C)c2cc3cc(Cl)ccc3[nH]c2=O)ccc1S(C)(=O)=O` [Compound I-6, 6-chloro-3-[(1S)-1-[(4-methanesulfonyl-3-methoxyphenyl)amino]ethyl]-1,2-dihydroquinolin-2-one], the IC50 under setting [1] was above 1000 nM.
The same measure, in the same setting: as for `N#Cc1ccc(NCc2cc3cc(Cl)ccc3[nH]c2=O)cc1OCCO` [Compound I-11, 4-{[(6-chloro-2-oxo-1,2-dihydroquinolin-3-yl)methyl]amino}-2-(2-hydroxyethoxy)benzonitrile], the figure is 100 to 1000 nM; as for `COc1cc(NCc2cc3cc(Cl)ccc3[nH]c2=O)ccc1-n1ccnc1` [Compound I-12, 6-chloro-3-({[4-(1H-imidazol-1-yl)-3-methoxyphenyl]amino}methyl)-1,2-dihydroquinolin-2-one], above 1000 nM.
Still for that read-out and setting: as for `CCOc1cc(NCc2cc3cc(Cl)ccc3[nH]c2=O)ccc1C#N` [Compound I-13, 4-{[(6-chloro-2-oxo-1,2-dihydroquinolin-3-yl)methyl]amino}-2-ethoxybenzonitrile], the figure is 100 to 1000 nM; as for `N#Cc1ccc(NCc2cc3cc(Cl)ccc3[nH]c2=O)cc1OCC(N)=O` [Compound I-14, 2-(5-{[(6-chloro-2-oxo-1,2-dihydroquinolin-3-yl)methyl]amino}-2-cyanophenoxy)acetamide], above 1000 nM.
Regarding `COc1cc(NCc2cc3cc(Cl)ccc3[nH]c2=O)ccc1S(C)(=O)=O` [Compound I-15, 6-chloro-3-{[(4-methanesulfonyl-3-methoxyphenyl)amino]methyl}-1,2-dihydroquinolin-2-one], the IC50 under setting [1] was above 1000 nM.
Same read-out and setting: the same measure for `COc1cc(NCc2cc3cc(C)c(C)cc3[nH]c2=O)ccc1C#N` [Compound I-17, 4-{[(6,7-dimethyl-2-oxo-1,2-dihydroquinolin-3-yl)methyl]amino}-2-methoxybenzonitrile]: above 1000 nM; for `COc1cc(NCc2cc3cc(C)ccc3[nH]c2=O)ccc1-n1cnc(C)c1` [Compound I-18, 3-({[3-methoxy-4-(4-methyl-1H-imidazol-1-yl)phenyl]amino}methyl)-6-methyl-1,2-dihydroquinolin-2-one]: above 1000 nM; for `Cc1cc2cc(CNc3cccc(S(=O)(=O)NC4=NCCC4)c3)c(=O)[nH]c2cc1C` [Compound I-19, N-(3,4-dihydro-2H-pyrrol-5-yl)-3-{[(6,7-dimethyl-2-oxo-1,2-dihydroquinolin-3-yl)methyl]amino}benzene-1-sulfonamide]: above 1000 nM.
Take `COc1cc(NCc2cc3cc(C)c(C)cc3[nH]c2=O)ccc1-n1cnnn1` [Compound I-20, 3-({[3-methoxy-4-(1H-1,2,3,4-tetrazol-1-yl)phenyl]amino}methyl)-6,7-dimethyl-1,2-dihydroquinolin-2-one]: the IC50 under setting [1] lay within 100 to 1000 nM.
As for `COc1cc(NCc2cc3cc(Br)ccc3[nH]c2=O)ccc1C#N` [Compound I-23, 4-{[(6-bromo-2-oxo-1,2-dihydroquinolin-3-yl)methyl]amino}-2-methoxybenzonitrile], under setting [1], the IC50 is 10 to 100 nM.
On the same count and under the same terms, as for `COc1cc(NCc2cc3cc(I)ccc3[nH]c2=O)ccc1C#N` [Compound I-28, 4-{[(6-iodo-2-oxo-1,2-dihydroquinolin-3-yl)methyl]amino}-2-methoxybenzonitrile], the figure is 100 to 1000 nM; as for `COc1cc(NCc2cc3ccc(Cl)cc3[nH]c2=O)ccc1C#N` [Compound I-29, 4-{[(7-chloro-2-oxo-1,2-dihydroquinolin-3-yl)methyl]amino}-2-methoxybenzonitrile], 100 to 1000 nM; as for `COc1cc(NCc2cc3cccnc3[nH]c2=O)ccc1C#N` [Compound I-31, 2-methoxy-4-{[(2-oxo-1,2-dihydro-1,8-naphthyridin-3-yl)methyl]amino}benzonitrile], above 1000 nM.
Still for that read-out and setting: the same measure for `COc1cc(C#N)ccc1NCc1cc2cc(Cl)ccc2[nH]c1=O` [Compound I-34, 4-{[(6-chloro-2-oxo-1,2-dihydroquinolin-3-yl)methyl]amino}-3-methoxybenzonitrile]: 100 to 1000 nM.
For the compound `N#Cc1ccc(NCc2cc3cc(Cl)ccc3[nH]c2=O)cc1C(F)(F)F` [Compound I-35, 4-{[(6-chloro-2-oxo-1,2-dihydroquinolin-3-yl)methyl]amino}-2-(trifluoromethyl)benzonitrile], the IC50 lay within 100 to 1000 nM.
Consider `N#Cc1ccc(NCc2cc3cc(Cl)ccc3[nH]c2=O)cc1F` [Compound I-37, 4-{[(6-chloro-2-oxo-1,2-dihydroquinolin-3-yl)methyl]amino}-2-fluorobenzonitrile], for which the half-inhibitory concentration (IC50) lay within 100 to 1000 nM.
With `O=c1[nH]c2ccc(Cl)cc2cc1CNc1ccc(-n2ccnc2)cc1` [Compound I-39, 6-chloro-3-({[4-(1H-imidazol-1-yl)phenyl]amino}methyl)-1,2-dihydroquinolin-2-one], under setting [1], the IC50 is above 1000 nM.
Take `NC(=O)c1ccccc1NCc1cc2cc(Cl)ccc2[nH]c1=O` [Compound I-40, 2-{[(6-chloro-2-oxo-1,2-dihydroquinolin-3-yl)methyl]amino}benzamide]: under setting [1], the IC50 is above 1000 nM.
For the compound `COc1cc(NCc2cc3cc(Cl)ccc3[nH]c2=O)ccc1F` [Compound I-41, 6-chloro-3-{[(4-fluoro-3-methoxyphenyl)amino]methyl}-1,2-dihydroquinolin-2-one], the IC50 under setting [1] is above 1000 nM.
As for `CNC(=O)c1ccc(NCc2cc3cc(Cl)ccc3[nH]c2=O)cc1` [Compound I-42, 4-{[(6-chloro-2-oxo-1,2-dihydroquinolin-3-yl)methyl]amino}-N-methylbenzamide], under setting [1], the IC50 is above 1000 nM.
Same read-out and setting: the same measure for `NC(=O)COc1ccc(NCc2cc3cc(Cl)ccc3[nH]c2=O)cc1` [Compound I-43, 2-(4-{[(6-chloro-2-oxo-1,2-dihydroquinolin-3-yl)methyl]amino}phenoxy)acetamide]: above 1000 nM.
Same read-out and setting: as for `COc1cc(NCc2cc3cc(Cl)ccc3[nH]c2=O)ccc1Cl` [Compound I-44, 6-chloro-3-{[(4-chloro-3-methoxyphenyl)amino]methyl}-1,2-dihydroquinolin-2-one], the figure is above 1000 nM; as for `N#CCc1cccc(NCc2cc3cc(Cl)ccc3[nH]c2=O)c1` [Compound I-45, 2-(3-{[(6-chloro-2-oxo-1,2-dihydroquinolin-3-yl)methyl]amino}phenyl)acetonitrile], above 1000 nM; as for `O=c1[nH]c2ccc(Cl)cc2cc1CNc1ccccc1F` [Compound I-46, 6-chloro-3-{[(2-fluorophenyl)amino]methyl}-1,2-dihydroquinolin-2-one], above 1000 nM.
In the case of `COc1cc(NCc2cc3ccccc3[nH]c2=O)ccc1-n1cnnn1` [Compound I-48, 3-({[3-methoxy-4-(1H-1,2,3,4-tetrazol-1-yl)phenyl]amino}methyl)-1,2-dihydroquinolin-2-one], under setting [1], the IC50 was above 1000 nM.
The same measure, in the same setting: as for `O=c1[nH]c2ccccc2cc1CNc1ccc(-n2cnnn2)cc1` [Compound I-49, 3-({[4-(1H-1,2,3,4-tetrazol-1-yl)phenyl]amino}methyl)-1,2-dihydroquinolin-2-one], the figure is above 1000 nM; as for `COc1cc(NCc2cc3cc(C)ccc3[nH]c2=O)ccc1C#N` [Compound I-50, 2-methoxy-4-{[(6-methyl-2-oxo-1,2-dihydroquinolin-3-yl)methyl]amino}benzonitrile], 100 to 1000 nM.
Still for that read-out and setting: as for `Cc1cc2cc(CNc3ccc(-n4cnnn4)cc3)c(=O)[nH]c2cc1C` [Compound I-51, 6,7-dimethyl-3-({[4-(1H-1,2,3,4-tetrazol-1-yl)phenyl]amino}methyl)-1,2-dihydroquinolin-2-one], the figure is above 1000 nM; as for `COc1ccc2[nH]c(=O)c(CNc3ccc(C#N)c(OC)c3)cc2c1` [Compound I-52, 2-methoxy-4-{[(6-methoxy-2-oxo-1,2-dihydroquinolin-3-yl)methyl]amino}benzonitrile], 100 to 1000 nM.
On the same count and under the same terms, the same measure for `COc1ccc2[nH]c(=O)c(CNc3ccc(-n4ccnc4)cc3)cc2c1` [Compound I-53, 3-({[4-(1H-imidazol-1-yl)phenyl]amino}methyl)-6-methoxy-1,2-dihydroquinolin-2-one]: above 1000 nM; for `COc1cc(NCc2cc3ccc(C)cc3[nH]c2=O)ccc1C#N` [Compound I-54, 2-methoxy-4-{[(7-methyl-2-oxo-1,2-dihydroquinolin-3-yl)methyl]amino}benzonitrile]: 100 to 1000 nM.
Take `CCOc1ccc2[nH]c(=O)c(CNc3ccc(C#N)c(OC)c3)cc2c1` [Compound I-55, 4-{[(6-ethoxy-2-oxo-1,2-dihydroquinolin-3-yl)methyl]amino}-2-methoxybenzonitrile]: the IC50 under setting [1] was in the range of 100 to 1000 nM.
The same measure, in the same setting: the same measure for `COc1ccc2cc(CNc3ccc(C#N)c(OC)c3)c(=O)[nH]c2c1` [Compound I-56, 2-methoxy-4-{[(7-methoxy-2-oxo-1,2-dihydroquinolin-3-yl)methyl]amino}benzonitrile]: 100 to 1000 nM.
Turning to `COc1cc(NCc2cc3cc(Cl)c(O)cc3[nH]c2=O)ccc1C#N` [Compound I-57, 4-{[(6-chloro-7-hydroxy-2-oxo-1,2-dihydroquinolin-3-yl)methyl]amino}-2-methoxybenzonitrile], the IC50 under setting [1] fell in the range of 10 to 100 nM.

For the origin of these results see US10266495B2, “Phenyl quinolinone derivatives as mutant-isocitrate dehydrogenase inhibitors” (FORMA TM2, Inc., priority 2014, dated 2019).
